From patent publication US9796711B2, “Substituted pyrazolo[3,4-b]pyridin-6-carboxylic acids and method of use” (AbbVie S.àr.l., priority 2015, dated 2017) come the findings set out here.

Assay [1] concerns the target T1, ΔF508-CFTR (Homo sapiens, UniProt P13569, DEL508-508).
T1 construct: host or cells: CFBE41o-, doxycycline-inducible
Nature of the assay: CFTR cell surface levels using HRP-tagged ΔF508-CFTR expressing CFBE cells, in the presence of a co-corrector. The assay is classed as cell-based. In a few lines: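 Cells were seeded with 0.5 μg/mL doxycycline and held 68 h at 37 °C. Test compounds plus 3 μM co-corrector (final 0.1% DMSO) were then added for 20 h at 33 °C. Washed cells received HRP substrate, and luminescence was normalized between DMSO and 3 μM co-corrector controls.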

Assay [2] has as its target T1, ΔF508-CFTR. Nature of the assay: CFTR cell surface levels using HRP-tagged ΔF508-CFTR expressing CFBE cells, intrinsic corrector capacity. In kind it is cell-based. In outline: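 Here the cells express ΔF508-CFTR with horseradish peroxidase inserted in extracellular loop 4, so only rescued channel at the surface gives luminescent signal. Compounds act on their own, 20 h at the reduced temperature of 33 °C; values are percent activity relative to DMSO and a 3 μM corrector.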

Where [3] appears, read: HRP-tagged ΔF508-CFTR expressing CFBE cells, in the presence of 3 μM co-corrector.
Setting [4] is: HRP-tagged ΔF508-CFTR expressing CFBE cells, in the presence of 3 μM co-corrector, read-out: EC50.
[5] abbreviates: HRP-tagged ΔF508-CFTR expressing CFBE cells, intrinsic corrector capacity (no co-corrector), 33° C., 20 hours.
Where [6] appears, read: HRP-tagged ΔF508-CFTR expressing CFBE cells, intrinsic corrector capacity (no co-corrector), 33° C., 20 hours, read-out: EC50.
[7] abbreviates: HRP-tagged ΔF508-CFTR CFBE41o- cells, compounds alone (intrinsic corrector capacity), 20 hours at 33° C., positive control 3 μM corrector.
Setting [8] is: HRP-tagged ΔF508-CFTR CFBE41o- cells, compounds alone (intrinsic corrector capacity), 20 hours at 33° C., read-out: EC50.
The mark [9] stands for this setting: HRP-tagged ΔF508-CFTR CFBE cells, compound alone (intrinsic corrector capacity), 20 hours at 33° C.
Setting [10] is: HRP-tagged ΔF508-CFTR CFBE cells, compound alone (intrinsic corrector capacity), 20 hours at 33° C., read-out: EC50.

Structures are written as SMILES.

T1 sequence (P13569 with tags, fused parts or gaps DEL508-508): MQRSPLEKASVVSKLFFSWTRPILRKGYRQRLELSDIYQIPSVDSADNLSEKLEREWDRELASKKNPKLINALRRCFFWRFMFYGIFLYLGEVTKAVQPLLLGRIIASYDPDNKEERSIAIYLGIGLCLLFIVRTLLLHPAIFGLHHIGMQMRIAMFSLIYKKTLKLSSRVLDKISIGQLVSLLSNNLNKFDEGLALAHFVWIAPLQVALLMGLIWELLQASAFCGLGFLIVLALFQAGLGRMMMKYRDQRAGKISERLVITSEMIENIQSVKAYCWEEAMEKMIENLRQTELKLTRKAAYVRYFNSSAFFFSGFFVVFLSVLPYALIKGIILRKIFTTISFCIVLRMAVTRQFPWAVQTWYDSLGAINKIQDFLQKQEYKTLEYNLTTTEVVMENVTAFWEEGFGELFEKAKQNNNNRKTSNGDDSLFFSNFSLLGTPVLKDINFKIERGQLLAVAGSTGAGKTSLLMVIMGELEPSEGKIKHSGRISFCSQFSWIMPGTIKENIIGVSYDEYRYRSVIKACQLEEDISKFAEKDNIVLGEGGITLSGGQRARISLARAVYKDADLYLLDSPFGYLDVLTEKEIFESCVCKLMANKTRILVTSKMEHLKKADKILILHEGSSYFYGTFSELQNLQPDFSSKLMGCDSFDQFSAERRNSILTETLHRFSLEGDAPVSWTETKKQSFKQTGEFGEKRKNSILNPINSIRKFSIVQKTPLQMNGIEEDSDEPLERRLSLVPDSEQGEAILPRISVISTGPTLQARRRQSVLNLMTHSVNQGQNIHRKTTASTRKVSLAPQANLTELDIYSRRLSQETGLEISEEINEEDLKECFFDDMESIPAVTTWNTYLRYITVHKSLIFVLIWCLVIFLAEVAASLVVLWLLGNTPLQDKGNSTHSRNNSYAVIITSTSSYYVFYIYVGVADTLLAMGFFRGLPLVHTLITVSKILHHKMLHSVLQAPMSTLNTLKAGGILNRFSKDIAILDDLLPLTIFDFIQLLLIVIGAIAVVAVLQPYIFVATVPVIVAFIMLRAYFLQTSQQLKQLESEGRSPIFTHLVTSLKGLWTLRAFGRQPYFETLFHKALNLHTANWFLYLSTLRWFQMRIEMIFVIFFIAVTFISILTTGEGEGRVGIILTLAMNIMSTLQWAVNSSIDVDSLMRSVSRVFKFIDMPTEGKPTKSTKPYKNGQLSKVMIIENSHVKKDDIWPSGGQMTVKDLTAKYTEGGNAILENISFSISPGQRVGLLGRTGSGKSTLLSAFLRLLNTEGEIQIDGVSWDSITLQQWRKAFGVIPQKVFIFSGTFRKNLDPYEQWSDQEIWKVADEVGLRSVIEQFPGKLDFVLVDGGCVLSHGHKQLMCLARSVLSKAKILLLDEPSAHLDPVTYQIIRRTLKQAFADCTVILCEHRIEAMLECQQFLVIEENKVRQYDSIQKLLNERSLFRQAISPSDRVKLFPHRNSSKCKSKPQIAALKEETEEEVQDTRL

As for `O=C(O)c1cc(N2CCC(CCN3CCCC3)CC2)c2c(C3CCC3)nn(-c3ccccc3)c2n1` [compound 574, 3-cyclobutyl-1-phenyl-4-{4-[2-(pyrrolidin-1-yl)ethyl]piperidin-1-yl}-1H-pyrazolo[3,4-b]pyridine-6-carboxylic acid], the “% Activation” value was found to be 469.5% on ΔF508-CFTR [1] (setting [3]) and 294% on ΔF508-CFTR [2] (setting [5]). In addition, the values for the EC50 on ΔF508-CFTR [1] (setting [4]) and on ΔF508-CFTR [2] (setting [6]) were 190 nM and 479 nM, respectively.

For the compound `Cc1cccc(-n2nc(C(C)C)c3c(N4CCC(CO)CC4)cc(C(=O)O)nc32)c1` [compound 213, 4-[4-(hydroxymethyl)piperidin-1-yl]-1-(3-methylphenyl)-3-(propan-2-yl)-1H-pyrazolo[3,4-b]pyridine-6-carboxylic acid], the “% Activation” value on ΔF508-CFTR [1] (setting [3]) is 456.97%; on ΔF508-CFTR [2] (setting [7]), 247.33%. Also, the EC50 on ΔF508-CFTR [1] (setting [4]) was 382 nM; at ΔF508-CFTR [2] (setting [8]) it was 679 nM.

As for `CC(F)(F)c1cccc(-n2nc(C3CCC3)c3c(N4CCC(N5CCOCC5)CC4)cc(C(=O)O)nc32)c1` [compound 915], the “% Activation” value is given as 587.95% on ΔF508-CFTR [1] (setting [3]) and 386.2% at ΔF508-CFTR [2] (setting [9]). For the same compound, the EC50 is 50.2 nM on ΔF508-CFTR [1] (setting [4]) and 394 nM at ΔF508-CFTR [2] (setting [10]).

For `CC(C)c1nn(-c2ccc(F)cc2)c2nc(C(=O)O)cc(N3CCC(N4CCN(C5CC5)CC4)CC3)c12` [compound 754, 4-[4-(4-cyclopropylpiperazin-1-yl)piperidin-1-yl]-1-(4-fluorophenyl)-3-(propan-2-yl)-1H-pyrazolo[3,4-b]pyridine-6-carboxylic acid], the “% Activation” value turned out to be 467.3% at ΔF508-CFTR [1] (setting [3]) and 254.1% at ΔF508-CFTR [2] (setting [5]). In addition, the figures for the EC50 at ΔF508-CFTR [1] (setting [4]) and at ΔF508-CFTR [2] (setting [6]) were 153 nM and 385 nM, respectively.

For the compound `O=C(O)c1cc(N2CCC(N3CCCCC3)CC2)c2c(C3CCC3)nn(-c3ccccc3)c2n1` [compound 576, 4-([1,4′-bipiperidin]-1′-yl)-3-cyclobutyl-1-phenyl-1H-pyrazolo[3,4-b]pyridine-6-carboxylic acid], the EC50 was determined as 396 nM on ΔF508-CFTR [1] and 496 nM at ΔF508-CFTR [2]. For the same compound, the “% Activation” value was 390.78% on ΔF508-CFTR [1] (setting [3]) and 175.2% at ΔF508-CFTR [2] (setting [5]).

Turning to `CN(C)C[C@@H](F)C1CCN(c2cc(C(=O)O)nc3c2c(C2CCC2)nn3-c2ccccc2)CC1` [compound 456, 3-cyclobutyl-4-{4-[(1S)-2-(dimethylamino)-1-fluoroethyl]piperidin-1-yl}-1-phenyl-1H-pyrazolo[3,4-b]pyridine-6-carboxylic acid], the “% Activation” value was 414.5% on ΔF508-CFTR [1] (setting [3]) and 253.65% on ΔF508-CFTR [2] (setting [5]). Further, the EC50 was determined as 335 nM on ΔF508-CFTR [1] (setting [4]) and 845 nM on ΔF508-CFTR [2] (setting [6]).

Regarding `O=C(O)c1cc(N2CCC(CCN3CCOCC3)CC2)c2c(C3CCC3)nn(-c3ccc(F)cc3)c2n1` [compound 810, 3-cyclobutyl-1-(4-fluorophenyl)-4-{4-[2-(morpholin-4-yl)ethyl]piperidin-1-yl}-1H-pyrazolo[3,4-b]pyridine-6-carboxylic acid], the “% Activation” value amounted to 468.7% at ΔF508-CFTR [1] (setting [3]) and 277.6% on ΔF508-CFTR [2] (setting [5]). Further, the values for the EC50 at ΔF508-CFTR [1] (setting [4]) and on ΔF508-CFTR [2] (setting [6]) were 88.4 nM and 204 nM, respectively.

As to `Cc1nn(-c2ccccc2)c2nc(C(=O)O)cc(N3CCCCC3)c12` [compound 123, 3-methyl-1-phenyl-4-(piperidin-1-yl)-1H-pyrazolo[3,4-b]pyridine-6-carboxylic acid], the “% Activation” value at ΔF508-CFTR [1] (setting [3]) came to 267.95%; on ΔF508-CFTR [2] (setting [7]) it was 107.95%. Further, the EC50 at ΔF508-CFTR [1] (setting [4]) amounted to 2690 nM; at ΔF508-CFTR [2] (setting [8]), 3280 nM.

Turning to `CC(C)Oc1nn(C2CCCCC2)c2nc(C(=O)O)cc(-c3ccc(CN4CC(N(C)C)C4)cc3)c12` [compound 927, 1-cyclohexyl-4-(4-{[3-(dimethylamino)azetidin-1-yl]methyl}phenyl)-3-[(propan-2-yl)oxy]-1H-pyrazolo[3,4-b]pyridine-6-carboxylic acid], the “% Activation” value stood at 362.92% at ΔF508-CFTR [1] (setting [3]) and 150.78% at ΔF508-CFTR [2] (setting [9]). The EC50 was found to be 1100 nM on ΔF508-CFTR [1] (setting [4]) and 1250 nM at ΔF508-CFTR [2] (setting [10]).

`O=C(O)c1cc(N2CCC(N3CCOCC3)CC2)c2c(C3CCC3)nn(-c3cccc(OC(F)F)c3)c2n1` [compound 910, 3-cyclobutyl-1-[3-(difluoromethoxy)phenyl]-4-[4-(morpholin-4-yl)piperidin-1-yl]-1H-pyrazolo[3,4-b]pyridine-6-carboxylic acid]: the “% Activation” value amounted to 499.9% on ΔF508-CFTR [1] (setting [3]) and 286.2% on ΔF508-CFTR [2] (setting [5]). Besides, the EC50 on ΔF508-CFTR [1] (setting [4]) worked out at 79.1 nM; on ΔF508-CFTR [2] (setting [6]), 187 nM.

Regarding `CC(C)c1nn(-c2cc(F)cc(F)c2)c2nc(C(=O)O)cc(-c3ccc(N4CCOCC4)cc3)c12` [compound 268, 1-(3,5-difluorophenyl)-4-[4-(morpholin-4-yl)phenyl]-3-(propan-2-yl)-1H-pyrazolo[3,4-b]pyridine-6-carboxylic acid], the “% Activation” value is reported as 425.68% at ΔF508-CFTR [1] (setting [3]) and 251.82% on ΔF508-CFTR [2] (setting [7]). Besides, the EC50 on ΔF508-CFTR [1] (setting [4]) is 394 nM; on ΔF508-CFTR [2] (setting [8]), 616 nM.

`O=C(O)c1cc(N2CCC(N3CCOCC3)CC2)c2c(C3CCC3)nn(-c3ccccc3)c2n1` [compound 560, 3-cyclobutyl-4-[4-(morpholin-4-yl)piperidin-1-yl]-1-phenyl-1H-pyrazolo[3,4-b]pyridine-6-carboxylic acid]: the EC50 was 171 nM on ΔF508-CFTR [1] and 393 nM at ΔF508-CFTR [2]. In addition, the “% Activation” value on ΔF508-CFTR [1] (setting [3]) is on record as 437.33%; at ΔF508-CFTR [2] (setting [5]), 265.05%.

Turning to `CC(C)N1CCC2(CCN(c3cc(C(=O)O)nc4c3c(C3CCC3)nn4-c3ccc(F)cc3)CC2)CC1` [compound 890, 3-cyclobutyl-1-(4-fluorophenyl)-4-[9-(propan-2-yl)-3,9-diazaspiro[5.5]undecan-3-yl]-1H-pyrazolo[3,4-b]pyridine-6-carboxylic acid], the “% Activation” value on ΔF508-CFTR [1] (setting [3]) is given as 406.67%; at ΔF508-CFTR [2] (setting [5]) it was 179%. Also, the concentration giving a half-maximal response (EC50) at ΔF508-CFTR [1] (setting [4]) is 225 nM; at ΔF508-CFTR [2] (setting [6]) it was 742 nM.

With `CC(C)c1nn(-c2cccc(N3CCOCC3)n2)c2nc(C(=O)O)cc(-c3ccc(N4CCOCC4)cc3)c12` [compound 244, 4-[4-(morpholin-4-yl)phenyl]-1-[6-(morpholin-4-yl)pyridin-2-yl]-3-(propan-2-yl)-1H-pyrazolo[3,4-b]pyridine-6-carboxylic acid], the “% Activation” value at ΔF508-CFTR [1] (setting [3]) is on record as 514.48%; at ΔF508-CFTR [2] (setting [7]) it was 320.17%. Further, the EC50 at ΔF508-CFTR [1] (setting [4]) was 458 nM; on ΔF508-CFTR [2] (setting [8]), 473 nM.

As for `O=C(O)c1cc(N2CCC(N3CCC(F)CC3)CC2)c2c(C3CCC3)nn(-c3ccc(F)cc3)c2n1` [compound 849, 3-cyclobutyl-4-(4-fluoro[1,4′-bipiperidin]-1′-yl)-1-(4-fluorophenyl)-1H-pyrazolo[3,4-b]pyridine-6-carboxylic acid], the “% Activation” value on ΔF508-CFTR [1] (setting [3]) is 458.6%; at ΔF508-CFTR [2] (setting [5]) it was 249.1%. The concentration for a half-maximal effect (EC50) was found to be 231 nM on ΔF508-CFTR [1] (setting [4]) and 660 nM at ΔF508-CFTR [2] (setting [6]).

For the compound `O=C(O)c1cc(N2CCC(N3CCC(O)CC3)CC2)c2c(C3CCC3)nn(-c3ccc(F)cc3)c2n1` [compound 898, 3-cyclobutyl-1-(4-fluorophenyl)-4-(4-hydroxy[1,4′-bipiperidin]-1′-yl)-1H-pyrazolo[3,4-b]pyridine-6-carboxylic acid], the figures for the “% Activation” value on ΔF508-CFTR [1] (setting [3]) and at ΔF508-CFTR [2] (setting [5]) were 393.6% and 231.6%, respectively. Further, the results for the EC50 on ΔF508-CFTR [1] (setting [4]) and at ΔF508-CFTR [2] (setting [6]) were 3330 nM and 3240 nM, respectively.

Consider `O=C(O)c1cc(N2CCC(N3CCN(C4CC4)CC3)CC2)c2c(C3CCC3)nn(-c3ccc(F)cc3)c2n1` [compound 886, 3-cyclobutyl-4-[4-(4-cyclopropylpiperazin-1-yl)piperidin-1-yl]-1-(4-fluorophenyl)-1H-pyrazolo[3,4-b]pyridine-6-carboxylic acid], for which the entries for the “% Activation” value on ΔF508-CFTR [1] (setting [3]) and on ΔF508-CFTR [2] (setting [5]) were 551.77% and 236.05%, respectively. For the same compound, the EC50 at ΔF508-CFTR [1] (setting [4]) was determined as 511 nM; at ΔF508-CFTR [2] (setting [6]), 467 nM.

As to `CN1CCC2(CC1)CCN(c1cc(C(=O)O)nc3c1c(C1CCC1)nn3-c1ccccc1)CC2` [compound 699, 3-cyclobutyl-4-(9-methyl-3,9-diazaspiro[5.5]undecan-3-yl)-1-phenyl-1H-pyrazolo[3,4-b]pyridine-6-carboxylic acid], the “% Activation” value on ΔF508-CFTR [1] (setting [3]) is listed as 432%; on ΔF508-CFTR [2] (setting [5]), 247.63%. The 50% effective concentration (EC50) amounted to 169 nM at ΔF508-CFTR [1] (setting [4]) and 622 nM at ΔF508-CFTR [2] (setting [6]).

On to `O=C(O)c1cc(N2CCC3(CC2)CCN(C2CC2)CC3)c2c(C3CCC3)nn(-c3ccc(F)cc3)c2n1` [compound 887, 3-cyclobutyl-4-(9-cyclopropyl-3,9-diazaspiro[5.5]undecan-3-yl)-1-(4-fluorophenyl)-1H-pyrazolo[3,4-b]pyridine-6-carboxylic acid], for which the “% Activation” value at ΔF508-CFTR [1] (setting [3]) is given as 375.13%; on ΔF508-CFTR [2] (setting [5]), 191.35%. In addition, the figures for the EC50 on ΔF508-CFTR [1] (setting [4]) and at ΔF508-CFTR [2] (setting [6]) were 204 nM and 361 nM, respectively.

By EC50 is commonly meant the midpoint of the concentration-response curve.
